Patent US20240381872A1, “SUBSTITUTED 2,3-DIHYDRO[1,3]THIAZOLO[4,5-B]PYRIDINES, SALTS THEREOF AND THEIR USE AS HERBICIDALLY ACTIVE SUBSTANCES” (BAYER AKTIENGESELLSCHAFT, priority 2021, published 2024)

Columns and labels:
Assay type in all cases: in vivo
[1] = system: Echinochloa crus-galli (ECHCG); experiment: Herbicidal pre-emergence action, section A (Table A3); details: visual grading after ca. 3 weeks vs untreated controls
Summary of the method: (§1)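 WP/EC formulations, aqueous, 0.5% additive, 600 l/ha → soil surface over seeds in sandy loam → greenhouse, optimum growth → visual % damage vs untreated at ca. 3 weeks.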

[2] = system: Lolium rigidum (LOLRI); experiment: Herbicidal pre-emergence action, section A (Table A5); details: visual grading after ca. 3 weeks vs untreated controls
Summary of the method: as §1

[3] = system: Amaranthus retroflexus (AMARE); experiment: Herbicidal pre-emergence action, section A (Table A11); details: for pre-emergence activity against AMARE in %: application rate 320 g/ha
Summary of the method: as §1

[4] = system: Digitaria sanguinalis (DIGSA); experiment: Herbicidal pre-emergence action, section A (Table A12); details: application rate 320 g/ha
Summary of the method: as §1

[5] = system: Lolium rigidum (LOLRI); experiment: Herbicidal post-emergence action, section B (Table B5); details: application rate 1280 g/ha; visual rating about 3 weeks after treatment vs untreated controls
Summary of the method: (§2)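 Scores are visual % activity relative to untreated plants (0% = like control, 100% = dead), taken about 3 weeks after spraying. Compounds, as WP or EC in water with 0.5% additive at 600 L/ha, went onto one-leaf-stage weeds grown from seed in sandy loam under greenhouse conditions.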

[6] = system: Echinochloa crus-galli (ECHCG); experiment: Herbicidal post-emergence action, section E (Table E5); details: visual assessment ca. 3 weeks after spraying
Description: (§3) Seeds of mono- and dicotyledonous weed plants and crop plants were sown, in plastic or organic planting pots, in sandy loam, covered with soil and grown in a greenhouse under controlled growth conditions. 2 to 3 weeks after sowing, the test plants were sprayed in the single-leaf stage. The compounds according to the invention, formulated in form of wettable powders (WP) or as emulsifiable concentrates (EC), were sprayed onto the green plant parts as aqueous suspension or emulsion, with the addition of 0.5% of an additive, at an application rate of 600 l of water/ha (converted). The test plants were placed in the greenhouse for ca. 3 weeks under optimum growth conditions, and then the effect of the preparations was assessed visually in comparison with untreated controls (herbicidal effect in percent (%): 100% effect=plants have died off, 0% effect=as control plants).

[7] = system: Matricaria inodora (MATIN); experiment: Herbicidal pre-emergence action, section A (Table A6); details: application rate 1280 g/ha, visual grading after ca. 3 weeks vs untreated controls
Summary of the method: as §1

[8] = system: Veronica persica (VERPE); experiment: Herbicidal post-emergence action, section B (Table B10); details: visual rating about 3 weeks after treatment vs untreated controls
Summary of the method: as §2

[9] = system: Amaranthus retroflexus (AMARE); experiment: Herbicidal post-emergence action, section B (Table B11); details: visual rating about 3 weeks after treatment vs untreated controls; for post-emergence activity against AMARE in %: application rate 320 g/ha
Summary of the method: as §2

[10] = system: Matricaria inodora (MATIN); experiment: Herbicidal pre-emergence action, section C (Table C6); details: visual grading after ca. 3 weeks
Description: Seeds of mono- and dicotyledonous weed plants and crop plants were sown, in plastic or organic planting pots, in sandy loam and covered with soil. The compounds according to the invention, formulated in the form of wettable powders (WP) or as emulsifiable concentrates (EC), were applied to the surface of the covering soil as aqueous suspension or emulsion, with the addition of 0.5% of an additive, at an application rate of 600 l of water/ha (converted). Following treatment, the pots were placed in a greenhouse and kept under optimum growth conditions for the test plants. The visual grading of the damage to the test plants was carried out after ca. 3 weeks in comparison to untreated controls (herbicidal effect in percent (%): 100% effect=plants have died off, 0% effect=as control plants).

[11] = system: Alopecurus myosuroides (ALOMY); experiment: Herbicidal post-emergence action, section E (Table E2); details: application rate 320 g/ha, assessed visually after ca. 3 weeks; for pest or weed control at 320 g/ha: Alopecurus myosuroides, post-emergence, 504 h, read-out: post-emergence activity against ALOMY in %
Description: as §3

[12] = system: Amaranthus retroflexus (AMARE); experiment: Herbicidal post-emergence action, section E (Table E3); details: assessed visually after ca. 3 weeks
Description: as §3

[13] = system: Polygonum convolvulus (POLCO); experiment: Herbicidal post-emergence action, section E (Table E7); details: visual assessment ca. 3 weeks after spraying; for post-emergence activity against POLCO in %: application rate 320 g/ha; for pest or weed control at 80 g/ha: Fallopia convolvulus, 504 h, application rate 80 g/ha, read-out: post-emergence activity against POLCO in %
Summary of the method: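 WP/EC sprayed on single-leaf plants (sandy loam, greenhouse, 2–3 wk post-sowing), 0.5% additive, 600 l/ha water; visual % damage vs untreated at ~3 wk.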

[14] = system: Abutilon theophrasti (ABUTH); experiment: Herbicidal pre-emergence action, section A (Table A1); details: visual grading after ca. 3 weeks vs untreated controls
Summary of the method: as §1

Cc1cc2c(nc1-c1cccc(C)c1F)NCS2 [Example I-113]
90%: pre-emergence activity against AMARE in % [3] | post-emergence activity against LOLRI in % [5]
80%: post-emergence activity against ECHCG in % ([6]; application rate 320 g/ha)
100%: pre-emergence activity against ECHCG in % ([1]; application rate 1280 g/ha) | pre-emergence activity against LOLRI in % ([2]; application rate 1280 g/ha) | pre-emergence activity against DIGSA in % [4]

Cc1cc2c(nc1-c1ccccc1F)N(C(=O)C1(C)CC(Cl)=NO1)CS2 (stereo not shown) [Example I-083]
100%: pre-emergence activity against ECHCG in % ([1]; application rate 320 g/ha) | pre-emergence activity against LOLRI in % ([2]; application rate 320 g/ha) | pre-emergence activity against AMARE in % [3] | pre-emergence activity against DIGSA in % [4]
80%: post-emergence activity against AMARE in % ([12]; application rate 320 g/ha) | post-emergence activity against ECHCG in % ([6]; application rate 80 g/ha)
90%: pre-emergence activity against MATIN in % [7] | post-emergence activity against LOLRI in % [5] | post-emergence activity against VERPE in % ([8]; application rate 320 g/ha) | post-emergence activity against AMARE in % [9] | pre-emergence activity against MATIN in % ([10]; application rate 320 g/ha) | post-emergence activity against ALOMY in % [11] | post-emergence activity against POLCO in % [13]

CC1(C(=O)N2CSc3cc(Br)c(-c4ccccc4)nc32)CC(Cl)=NO1 (stereo not shown) [Example I-139]
80%: pre-emergence activity against MATIN in % ([10]; application rate 320 g/ha) | post-emergence activity against ALOMY in % [11]
100%: pre-emergence activity against ECHCG in % ([1]; application rate 320 g/ha) | pre-emergence activity against LOLRI in % ([2]; application rate 1280 g/ha) | pre-emergence activity against AMARE in % [3] | pre-emergence activity against DIGSA in % [4]
90%: pre-emergence activity against ABUTH in % ([14]; application rate 320 g/ha) | pre-emergence activity against MATIN in % [7] | post-emergence activity against VERPE in % ([8]; application rate 1280 g/ha) | post-emergence activity against AMARE in % [9] | post-emergence activity against AMARE in % ([12]; application rate 320 g/ha) | post-emergence activity against ECHCG in % ([6]; application rate 320 g/ha) | post-emergence activity against POLCO in % [13]

Cc1cc2c(nc1-c1ccccc1Cl)NCS2 [Example I-049, 5-(2-chlorophenyl)-6-methyl-2,3-dihydro[1,3]thiazolo[4,5-b]pyridine]
90%: pest or weed control at 320 g/ha ([12]; Amaranthus retroflexus, post-emergence, 504 h, application rate 320 g/ha, read-out: post-emergence activity against AMARE in %)
80%: pest or weed control at 320 g/ha ([10]; Tripleurospermum inodorum, pre-emergence, 504 h, application rate 320 g/ha, read-out: pre-emergence activity against MATIN in %) | pest or weed control at 320 g/ha [11] | pest or weed control at 320 g/ha ([6]; Echinochloa crus-galli, 504 h, application rate 320 g/ha, read-out: post-emergence activity against ECHCG in %) | pest or weed control at 80 g/ha [13]

Cc1cc2c(nc1-c1ccccc1F)NCS2 [Example I-007, 5-(2-fluorophenyl)-6-methyl-2,3-dihydro[1,3]thiazolo[4,5-b]pyridine]
100%: pest or weed control at 320 g/ha ([1]; Echinochloa crus-galli, pre-emergence, 504 h, application rate 320 g/ha, read-out: pre-emergence activity against ECHCG in %) | pest or weed control at 320 g/ha ([2]; Lolium rigidum, pre-emergence, 504 h, application rate 320 g/ha, read-out: pre-emergence activity against LOLRI in %)
80%: pest or weed control at 80 g/ha ([10]; Tripleurospermum inodorum, pre-emergence, 504 h, application rate 80 g/ha, read-out: pre-emergence activity against MATIN in %) | pest or weed control at 80 g/ha ([12]; Amaranthus retroflexus, post-emergence, 504 h, application rate 80 g/ha, read-out: post-emergence activity against AMARE in %)
90%: pest or weed control at 1280 g/ha ([14]; Abutilon theophrasti, pre-emergence, 504 h, application rate 1280 g/ha, read-out: pre-emergence activity against ABUTH in %) | pest or weed control at 1280 g/ha ([7]; Tripleurospermum inodorum, pre-emergence, 504 h, read-out: pre-emergence activity against MATIN in %) | pest or weed control at 1280 g/ha ([3]; Amaranthus retroflexus, 504 h, application rate 1280 g/ha, read-out: pre-emergence activity against AMARE in %) | pest or weed control at 320 g/ha ([8]; Veronica persica, post-emergence, 504 h, application rate 320 g/ha, read-out: post-emergence activity against VERPE in %) | pest or weed control at 1280 g/ha ([9]; Amaranthus retroflexus, post-emergence, 504 h, application rate 1280 g/ha, read-out: post-emergence activity against AMARE in %) | pest or weed control at 320 g/ha [11] | pest or weed control at 80 g/ha ([6]; Echinochloa crus-galli, 504 h, application rate 80 g/ha, read-out: post-emergence activity against ECHCG in %) | pest or weed control at 80 g/ha [13]
